This assay has as its target T1, WNK3 (Homo sapiens, UniProt Q9BYP7).
T1 construct: purchased Thermo Fisher Scientific (Life Technologies) SelectScreen
Description: SelectScreen LanthaScreen. It counts as binding. As to conditions: read-out: % displacement. In outline:
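SelectScreen broad panel; activity (Z'LYTE, Adapta) plus binding formats. ATP: Km app for CSF1R Z'LYTE; 10 for CAMK1 Adapta. Readout = % per kinase.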

T1 sequence (Q9BYP7 whole entry): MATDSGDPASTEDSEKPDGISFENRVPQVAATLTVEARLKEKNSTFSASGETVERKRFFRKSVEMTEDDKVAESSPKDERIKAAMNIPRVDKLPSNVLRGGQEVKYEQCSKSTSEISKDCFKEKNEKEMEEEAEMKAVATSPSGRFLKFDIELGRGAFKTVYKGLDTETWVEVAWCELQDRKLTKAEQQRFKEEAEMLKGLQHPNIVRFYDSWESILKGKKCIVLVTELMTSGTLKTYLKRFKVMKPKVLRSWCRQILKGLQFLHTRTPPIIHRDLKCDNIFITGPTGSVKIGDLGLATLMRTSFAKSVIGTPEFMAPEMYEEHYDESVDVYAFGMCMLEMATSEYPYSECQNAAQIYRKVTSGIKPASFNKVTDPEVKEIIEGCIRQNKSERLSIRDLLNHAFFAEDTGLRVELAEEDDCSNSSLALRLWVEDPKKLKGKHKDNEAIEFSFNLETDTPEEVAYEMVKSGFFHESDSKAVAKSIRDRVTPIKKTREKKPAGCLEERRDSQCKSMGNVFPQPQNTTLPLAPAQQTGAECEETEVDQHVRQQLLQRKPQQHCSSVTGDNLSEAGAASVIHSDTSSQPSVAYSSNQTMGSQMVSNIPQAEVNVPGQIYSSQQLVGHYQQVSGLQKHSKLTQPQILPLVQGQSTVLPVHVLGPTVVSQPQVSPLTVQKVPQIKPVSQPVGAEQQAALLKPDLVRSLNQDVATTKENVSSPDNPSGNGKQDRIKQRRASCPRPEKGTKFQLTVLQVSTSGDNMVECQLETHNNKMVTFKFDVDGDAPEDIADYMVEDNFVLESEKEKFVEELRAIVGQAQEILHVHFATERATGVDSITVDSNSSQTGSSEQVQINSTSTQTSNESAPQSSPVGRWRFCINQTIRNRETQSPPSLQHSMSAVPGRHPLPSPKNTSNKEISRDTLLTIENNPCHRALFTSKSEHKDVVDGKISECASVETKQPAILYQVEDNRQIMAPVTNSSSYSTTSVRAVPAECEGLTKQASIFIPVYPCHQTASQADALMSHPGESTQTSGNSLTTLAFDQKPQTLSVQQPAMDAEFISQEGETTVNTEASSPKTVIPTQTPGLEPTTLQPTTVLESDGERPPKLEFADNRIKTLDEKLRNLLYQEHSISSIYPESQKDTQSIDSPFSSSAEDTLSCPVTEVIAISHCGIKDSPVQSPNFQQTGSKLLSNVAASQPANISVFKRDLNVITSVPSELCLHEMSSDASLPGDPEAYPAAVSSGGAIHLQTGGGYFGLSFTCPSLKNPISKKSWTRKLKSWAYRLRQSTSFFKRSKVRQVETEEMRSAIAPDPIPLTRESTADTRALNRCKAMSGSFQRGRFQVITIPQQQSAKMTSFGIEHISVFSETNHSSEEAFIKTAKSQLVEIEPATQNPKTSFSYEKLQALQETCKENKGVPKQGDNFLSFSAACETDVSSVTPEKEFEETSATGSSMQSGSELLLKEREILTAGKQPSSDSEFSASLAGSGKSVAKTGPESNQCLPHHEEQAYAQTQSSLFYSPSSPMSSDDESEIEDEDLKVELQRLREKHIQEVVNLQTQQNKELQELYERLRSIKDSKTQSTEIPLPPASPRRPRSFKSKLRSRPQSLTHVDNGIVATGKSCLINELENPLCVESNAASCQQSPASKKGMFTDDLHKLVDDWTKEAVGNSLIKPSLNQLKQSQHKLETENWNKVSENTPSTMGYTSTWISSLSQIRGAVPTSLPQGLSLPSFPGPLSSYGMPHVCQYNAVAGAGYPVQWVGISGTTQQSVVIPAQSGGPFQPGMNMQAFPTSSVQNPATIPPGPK

Take `CN(C(=O)CN1CCOCC1)c1ccc2sc3c(-c4cccc5c(=O)cc(N6CC7CCC(C6)O7)oc45)cccc3c2c1` [NU5455]: the inhibition at 1 µM is -1.2%.

These data come from paper PMC6934184, “Selective DNA-PKcs inhibition extends the therapeutic index of localized radiotherapy and chemotherapy” (The Journal of Clinical Investigation, 2019).
